This is an account of results in patent US6172109A, “13-Thia prostaglandins for use in glaucoma therapy” (priority 1998, dated 2001).

Data set [1] deals with New Zealand (NZA) rabbit eye. In words: ocular irritation in the New Zealand (NZA) rabbit (Hackett/McDonald scoring). Type of data set: in vivo. How it is done:
Compound II and PGF2α isopropyl ester (PGF2α iPr) were tested for ocular irritation in the New Zealand (NZA) rabbit. The prostaglandins were administered in 30 μL of test formulation. Conjunctival hyperemia, swelling and discharge were evaluated using a system devised to grossly compare the irritation potential of prostaglandins in the NZA rabbit. Using the Hackett/McDonald scoring system (Hackett, R. B. and McDonald, T. O. "Eye Irritation" in Dermatotoxicology, 4th edition, Marzulli, F. N. and Maibach, H. I. editors, Hemisphere Publishing Corp., Washington D.C. (1991)), conjunctival hyperemia, conjunctival swelling, and ocular discharge were graded using a slit-lamp prior to compound instillation and 1, 2, 3, and 5 hours after topical ocular instillation of the test compound. The percentage of eyes scoring +2 or greater for all time points was calculated for each parameter (conjunctival hyperemia, conjunctival swelling, and ocular discharge). To facilitate comparison, PGF2α iPr was administered at the same time as the test agent.

Data set [2] concerns cynomologus monkey eyes. In words: IOP-lowering effect in cynomologus monkey eyes (lasered, ocular hypertensive). Type of data set: in vivo. As to the method:
Compound II and PGF2α isopropyl ester (PGF2α iPr) were tested for IOP-lowering effect in cynomologus monkey eyes. The right eyes of the cynomologus monkeys in this study were previously given laser trabeculoplasty to induce ocular hypertension in the lasered eye. Animals had been trained to sit in restraint chairs and conditioned to accept experimental procedures without chemical restraint. IOP was determined with a pneumatonometer after light comeal anesthesia with dilute proparacaine. The test protocol included a five-dose b.i.d. treatment regimen because of the typical delayed response to prostaglandins. The test formulations were administered to the lasered right eyes, and the normal left eyes remained untreated for compound 11, or to both eyes for PGF2α isopropyl ester (PGF2α iPr). Baseline IOP values were determined prior to treatment with the test formulation, and IOP was determined 16 hours after the fourth dose for all compounds, 2, 4, and 6 hours after the fifth dose for compound II, and 1, 3 and 7 hours after the fifth dose for PGF2α iPr. Results are presented in Table 2 as the mean percent reduction of IOP from baseline +/- SEM. Prostaglandins were administered in 30 μL of test formulation.

For data set [3], the system named is intraocular pressure (IOP). The settings on record: cited from earlier work.
Setting [4] is: 3 μg, topical ocular, 1, 2, 3, 5 hours.
Where [5] appears, read: 10.0 μg, topical ocular, 1, 2, 3, 5 hours.
[6] abbreviates: 1.0 μg, topical ocular, administered at the same time as the test agent.
[7] abbreviates: 1.0 μg, topical ocular, second of two values, administered at the same time as the test agent.

“Also recorded” adds a separate entry of the source.

Consider `CC(C)OC(=O)CCC/C=C\C[C@@H]1[C@@H](SC[C@@H](O)COc2cccc(Cl)c2)[C@H](O)C[C@@H]1O` [Compound II, (5Z)-(9S, 11R, 15S)-9, 11, 15-trihydroxy-16-m-chlorophenoxy-13-thia-17,18, 19, 20-tetranor-5-prostenoic acid isopropyl ester], for which the “% Incidence, Conjunctival Hyperemia (eyes scoring +2 or greater for all time points)” value came out at 0% in data set [1] (setting [4]) and 23% in data set [1] (setting [5]). Besides, the “% Incidence, Conjunctival Swelling (eyes scoring +2 or greater for all time points)” value in data set [1] (setting [4]) is 30%; in data set [1] (setting [5]) it was 33%. For the same molecule, the “% Incidence, Discharge (eyes scoring +2 or greater for all time points)” value in data set [1] (setting [4]) came out at 0%; in data set [1] (setting [5]), 5%. In addition, the “ocular irritation / ocular side effects (in words)” value was “attenuates the ocular side effects; also recorded: low incidence of side effects” in data set [1] (Table 1) and “low incidence of ocular irritation” in data set [1] (Table 1, listed as 11). Further, the “Percent IOP Reduction +/-SEM” value is reported as 13.9 +/- 6.8% in data set [2] (1.0 μg b.i.d., 2 hours after fifth dose (2/5), baseline IOP 31.6 mm Hg); 8.1 +/- 6.6% in data set [2] (1.0 μg b.i.d., 4 hours after fifth dose (4/5), baseline IOP 31.6 mm Hg); 10 +/- 6.2% in data set [2] (1.0 μg b.i.d., 6 hours after fifth dose (6/5), baseline IOP 31.6 mm Hg); 4.6 +/- 6.1% in data set [2] (1.0 μg b.i.d., 16 hours after fourth dose (16/4), baseline IOP 31.6 mm Hg); 23.3% in data set [2] (3.0 μg b.i.d., 2 hours after fifth dose (2/5), baseline IOP 32.2 mm Hg); 24.2 +/- 3.6% in data set [2] (3.0 μg b.i.d., 4 hours after fifth dose (4/5), baseline IOP 32.2 mm Hg). For the same molecule, the “Percent IOP Reduction +/-SEM” value in data set [2] (3.0 μg b.i.d., 6 hours after fifth dose (6/5), baseline IOP 32.2 mm Hg) was 24.9 +/- 3.4%; in data set [2] (3.0 μg b.i.d., 16 hours after fourth dose (16/4), baseline IOP 32.2 mm Hg), 18.0 +/- 3.0%. The “IOP reduction (in words)” value in data set [2] (for the time period tested, Table 2) is “significant degree of IOP reduction”.

Turning to `CCCCC[C@H](O)/C=C/[C@@H]1[C@@H](C/C=C\CCCC(=O)OC(C)C)[C@@H](O)C[C@H]1O` [PGF2α iPr, PGF2α isopropyl ester, reference compound], the “% Incidence, Conjunctival Hyperemia (eyes scoring +2 or greater for all time points)” value in data set [1] (setting [6]) and in data set [1] (setting [7]) was 58% in each case. The “% Incidence, Conjunctival Swelling (eyes scoring +2 or greater for all time points)” value in data set [1] (setting [6]) turned out to be 67%; in data set [1] (setting [7]), 63%. Further, the “% Incidence, Discharge (eyes scoring +2 or greater for all time points)” value in data set [1] (setting [6]) is reported as 47%; in data set [1] (setting [7]), 48%. Further, the “ocular irritation / ocular side effects (in words)” value in data set [1] (Table 1) was “relatively high incidence of hyperemia, conjunctival swelling and discharge”. In addition, the “Percent IOP Reduction +/-SEM” value in data set [2] (1.0 μg b.i.d., both eyes, 1 hour after fifth dose (1/5), baseline IOP 34.8 mm Hg) is reported as 27.6%; in data set [2] (1.0 μg b.i.d., both eyes, 3 hours after fifth dose (3/5), baseline IOP 34.8 mm Hg), 38 +/- 1.7%; in data set [2] (1.0 μg b.i.d., both eyes, 7 hours after fifth dose (7/5), baseline IOP 34.8 mm Hg), 25.6 +/- 14.4%; in data set [2] (1.0 μg b.i.d., both eyes, 16 hours after fourth dose (16/4), baseline IOP 34.8 mm Hg), 5.8 +/- 4.0%.

Turning to `CCCCC[C@H](O)/C=C/[C@@H]1[C@@H](C/C=C\CCCC(=O)O)[C@@H](O)C[C@H]1O` [PGF2α], in data set [3] (after topical ocular instillation, background), the “IOP lowering (in words)” value is “known to lower intraocular pressure (IOP)”. Further, the “side effects (in words)” value in data set [3] (in vivo) is recorded as “can cause conjunctival hyperemia and/or edema as well as inflammation”.
